Data as given in patent publication US9884832B2 (priority 2011, dated 2018).
Like-named read-outs stand apart in the source and are kept apart here.

Key:
[1] = target: AM2 S31N (serine→asparagine mutation at residue 31 in the M2 protein) (Influenza A virus, UniProt P0DOF5, S31N); type: cell-based, influenza virus A/Udorn/72
[2] = target: AM2 V27A (valine→alanine mutation at residue 27 in the M2 protein) (Influenza A virus, UniProt P0DOF5, V27A); type: cell-based, influenza virus A/Udorn/72

SMILES: c1ccc2cc(COc3ccc(CNC45CC6CC(CC(C6)C4)C5)cc3)ccc2c1 [Example 38a, N-(4-(naphthalen-2-ylmethoxy)benzyl)adamantan-1-amine]
- S31N OOcyte Inhibition at 100 uM (%) [1]: B (key: (A)=31-95%; (B)=0-30%)
- V27A OOcyte Inhibition at 100 uM (%) [2]: B (key: (A)=31-95%; (B)=0-30%)

SMILES: Oc1ccc2[nH]c(CNC34CC5CC(CC(C5)C3)C4)cc2c1 [Example 179a]
- S31N OOcyte Inhibition at 100 uM (%) [1]: B (key: (A)=31-95%; (B)=0-30%)
- V27A OOcyte Inhibition at 100 uM (%) [2]: B (key: (A)=31-95%; (B)=0-30%)

SMILES: OCC(Cc1cnc[nH]1)NCC12CC3CC(CC(C3)C1)C2 (stereo not drawn) [Example 2, 2-[(adamantan-1-ylmethyl)-amino]-3-(3H-imidazol-4-yl)-propan-1-ol]
- S31N OOcyte Inhibition at 100 uM (%) ([1]; pH 5.5): B (key: (A)=31-95%; (B)=0-30%)
- V27A OOcyte Inhibition at 100 uM (%) ([2]; pH 5.5): B (key: (A)=31-95%; (B)=0-30%)

SMILES: c1cnc2ccc(CNC34CC5CC(CC(C5)C3)C4)cc2c1 [Example 39a, Adamantan-1-yl-quinolin-6-ylmethyl-amine]
- S31N OOcyte Inhibition at 100 uM (%) [1]: A (key: (A)=31-95%; (B)=0-30%)
- V27A OOcyte Inhibition at 100 uM (%) [2]: B (key: (A)=31-95%; (B)=0-30%)

SMILES: c1cc(CNC23CC4CC(CC(C4)C2)C3)c2cc[nH]c2c1 [Example 96, Adamantan-1-yl-(1H-indol-4-ylmethyl)-amine]
- S31N OOcyte Inhibition at 100 uM (%) ([1]; pH 5.5): B (key: (A)=31-95%; (B)=0-30%)
- V27A OOcyte Inhibition at 100 uM (%) ([2]; pH 5.5): A (key: (A)=31-95%; (B)=0-30%)

SMILES: c1ccc(CNC23CC4CC(CC(C4)C2)C3)cc1 [Example 8, Adamantan-1-yl-benzyl-amine]
- S31N OOcyte Inhibition at 100 uM (%) ([1]; pH 5.5): B (key: (A)=31-95%; (B)=0-30%)
- V27A OOcyte Inhibition at 100 uM (%) ([2]; pH 5.5): B (key: (A)=31-95%; (B)=0-30%)

SMILES: c1csc(-c2csc(CNC34CC5CC(CC(C5)C3)C4)c2)c1 [Example 140a, Adamantan-1-yl-[2,3′]bithiophenyl-5′-ylmethyl-amine]
- S31N OOcyte Inhibition at 100 uM (%) [1]: A (key: (A)=31-95%; (B)=0-30%)
- V27A OOcyte Inhibition at 100 uM (%) [2]: A (key: (A)=31-95%; (B)=0-30%)

SMILES: Oc1ccc(CNC23CC4CC(CC(C4)C2)C3)cc1O [Example 45, 4-(Adamantan-1-ylaminomethyl)-benzene-1,2-diol]
- S31N OOcyte Inhibition at 100 uM (%) ([1]; pH 5.5): B (key: (A)=31-95%; (B)=0-30%)
- V27A OOcyte Inhibition at 100 uM (%) ([2]; pH 5.5): A (key: (A)=31-95%; (B)=0-30%)

SMILES: OC12CC3CC(C1)CC(NCc1cccs1)(C3)C2 [Example 187a, 3-[(Thiophen-2-ylmethyl)-amino]adamantan-1-ol]
- S31N OOcyte Inhibition at 100 uM (%) [1]: A (key: (A)=31-95%; (B)=0-30%)
- V27A OOcyte Inhibition at 100 uM (%) [2]: B (key: (A)=31-95%; (B)=0-30%)

SMILES: Oc1ccc(CNC2C3CC4CC(C3)CC2C4)c(O)c1 (stereo not drawn) [Example 100, 4-(Adamantan-2-ylaminomethyl)-benzene-1,3-diol]
- S31N OOcyte Inhibition at 100 uM (%) ([1]; pH 5.5): B (key: (A)=31-95%; (B)=0-30%)
- V27A OOcyte Inhibition at 100 uM (%) ([2]; pH 5.5): A (key: (A)=31-95%; (B)=0-30%)

SMILES: CSc1ccc(CNC23CC4CC(CC(C4)C2)C3)cc1 [Example 23, Adamantan-1-yl-(4-methylsulfanyl-benzyl)-amine]
- S31N OOcyte Inhibition at 100 uM (%) ([1]; pH 5.5): A (key: (A)=31-95%; (B)=0-30%)
- V27A OOcyte Inhibition at 100 uM (%) ([2]; pH 5.5): B (key: (A)=31-95%; (B)=0-30%)

SMILES: Oc1ccc(CNC23CC4CC(CC(C4)C2)C3)c(Cl)c1 [Example 58, 4-(Adamantan-1-ylaminomethyl)-3-chloro-phenol]
- S31N OOcyte Inhibition at 100 uM (%) ([1]; pH 5.5): B (key: (A)=31-95%; (B)=0-30%)
- V27A OOcyte Inhibition at 100 uM (%) ([2]; pH 5.5): A (key: (A)=31-95%; (B)=0-30%)

SMILES: c1ccc2sc(CNC34CC5CC(CC(C5)C3)C4)nc2c1 [Example 91, Adamantan-1-yl-benzothiazol-2-ylmethyl-amine]
- S31N OOcyte Inhibition at 100 uM (%) ([1]; pH 5.5): A (key: (A)=31-95%; (B)=0-30%)
- V27A OOcyte Inhibition at 100 uM (%) ([2]; pH 5.5): B (key: (A)=31-95%; (B)=0-30%)

SMILES: Oc1cccc2ccc(CNC34CC5CC(CC(C5)C3)C4)nc12 [Example 65a, 2-((adamantan-1-ylamino)methyl)quinolin-8-ol]
- S31N OOcyte Inhibition at 100 uM (%) [1]: B (key: (A)=31-95%; (B)=0-30%)
- V27A OOcyte Inhibition at 100 uM (%) [2]: B (key: (A)=31-95%; (B)=0-30%)

SMILES: c1cn(-c2ccc(CNC34CC5CC(CC(C5)C3)C4)cc2)cn1 [Example 36, Adamantan-1-yl-(4-imidazol-1-yl-benzyl)-amine]
- S31N OOcyte Inhibition at 100 uM (%) ([1]; pH 5.5): B (key: (A)=31-95%; (B)=0-30%)
- V27A OOcyte Inhibition at 100 uM (%) ([2]; pH 5.5): B (key: (A)=31-95%; (B)=0-30%)

SMILES: COc1ccc(CNC23CC4CC(CC(C4)C2)C3)c(OC)c1 [Example 59, Adamantan-1-yl-(2,4-dimethoxy-benzyl)-amine]
- S31N OOcyte Inhibition at 100 uM (%) ([1]; pH 5.5): B (key: (A)=31-95%; (B)=0-30%)
- V27A OOcyte Inhibition at 100 uM (%) ([2]; pH 5.5): B (key: (A)=31-95%; (B)=0-30%)

SMILES: Cc1noc(C)c1-c1ccc(CNC23CC4CC(CC(C4)C2)C3)cc1 [Example 33a, N-(4-(3,5-Dimethylisoxazol-4-yl)benzyl)adamantan-1-amine]
- S31N OOcyte Inhibition at 100 uM (%) [1]: B (key: (A)=31-95%; (B)=0-30%)
- V27A OOcyte Inhibition at 100 uM (%) [2]: B (key: (A)=31-95%; (B)=0-30%)

SMILES: c1cc(CNC23CC4CC(CC(C4)C2)C3)co1 [Example 66a, Adamantan-1-yl-furan-3-ylmethyl-amine]
- S31N OOcyte Inhibition at 100 uM (%) [1]: B (key: (A)=31-95%; (B)=0-30%)
- V27A OOcyte Inhibition at 100 uM (%) [2]: B (key: (A)=31-95%; (B)=0-30%)

SMILES: Cc1nc(-c2ccc(CNC34CC5CC(CC(C5)C3)C4)s2)cs1 [Example 156a, N-((5-(2-methylthiazol-4-yl)thiophen-2-yl)methyl)adamantan-1-amine]
- S31N OOcyte Inhibition at 100 uM (%) [1]: A (key: (A)=31-95%; (B)=0-30%)
- V27A OOcyte Inhibition at 100 uM (%) [2]: A (key: (A)=31-95%; (B)=0-30%)

SMILES: Cc1ccc(C(C)NC23CC4CC(CC(C4)C2)C3)s1 (stereo not drawn) [Example 97a, N-(1-(5-methylthiophen-2-yl)ethyl)adamantan-1-amine]
- S31N OOcyte Inhibition at 100 uM (%) [1]: B (key: (A)=31-95%; (B)=0-30%)
- V27A OOcyte Inhibition at 100 uM (%) [2]: B (key: (A)=31-95%; (B)=0-30%)

SMILES: Nc1ncc(CNC23CC4CC(CC(C4)C2)C3)cn1 [Example 75, 5-(Adamantan-1-ylaminomethyl)-pyrimidin-2-ylamine]
- S31N OOcyte Inhibition at 100 uM (%) ([1]; pH 5.5): B (key: (A)=31-95%; (B)=0-30%)
- V27A OOcyte Inhibition at 100 uM (%) ([2]; pH 5.5): B (key: (A)=31-95%; (B)=0-30%)

SMILES: NCc1ccc(CNC23CC4CC(CC(C4)C2)C3)cc1 [Example 13, Adamantan-1-yl-(4-aminomethyl-benzyl)-amine]
- S31N OOcyte Inhibition at 100 uM (%) ([1]; pH 5.5): B (key: (A)=31-95%; (B)=0-30%)
- V27A OOcyte Inhibition at 100 uM (%) ([2]; pH 5.5): A (key: (A)=31-95%; (B)=0-30%)

SMILES: NC(=O)COc1ccc(CNC23CC4CC(CC(C4)C2)C3)cc1 [Example 39, 2-(4-((Adamantan-1-ylamino)methyl)phenoxy)acetamide]
- S31N OOcyte Inhibition at 100 uM (%) ([1]; pH 5.5): B (key: (A)=31-95%; (B)=0-30%)
- V27A OOcyte Inhibition at 100 uM (%) ([2]; pH 5.5): B (key: (A)=31-95%; (B)=0-30%)

SMILES: Oc1c(CNC23CC4CC(CC(C4)C2)C3)ccc2ccccc12 [Example 53a, 2-(Adamantan-1-ylaminomethyl)-naphthalen-1-ol]
- S31N OOcyte Inhibition at 100 uM (%) [1]: A (key: (A)=31-95%; (B)=0-30%)
- V27A OOcyte Inhibition at 100 uM (%) [2]: B (key: (A)=31-95%; (B)=0-30%)

SMILES: CC(C)(C)c1ccc(CNC23CC4CC(CC(C4)C2)C3)cc1 [Example 7a, N-(4-(tert-Butyl)benzyl)adamantan-1-amine methanesulfonate]
- S31N OOcyte Inhibition at 100 uM (%) [1]: A (key: (A)=31-95%; (B)=0-30%)
- V27A OOcyte Inhibition at 100 uM (%) [2]: B (key: (A)=31-95%; (B)=0-30%)

SMILES: CC(=O)c1sccc1-c1ccc(CNC23CC4CC(CC(C4)C2)C3)cc1 [Example 43, 1-(3-(4-((Adamantan-1-ylamino)methyl)phenyl)thiophen-2-yl)ethanone]
- S31N OOcyte Inhibition at 100 uM (%) ([1]; pH 5.5): A (key: (A)=31-95%; (B)=0-30%)
- V27A OOcyte Inhibition at 100 uM (%) ([2]; pH 5.5): A (key: (A)=31-95%; (B)=0-30%)

SMILES: OC12CC3CC(C1)CC(NCc1ccc(-c4ccccc4)s1)(C3)C2 [Example 191a, 3-[(5-Phenyl-thiophen-2-ylmethyl)-amino]adamantan-1-ol]
- S31N OOcyte Inhibition at 100 uM (%) [1]: A (key: (A)=31-95%; (B)=0-30%)
- V27A OOcyte Inhibition at 100 uM (%) [2]: B (key: (A)=31-95%; (B)=0-30%)

SMILES: OC1CCN(C2C3CC4CC(C3)CC2C4)CC1 (stereo not drawn) [Example 104, 1-Adamantan-2-yl-piperidin-4-ol]
- S31N OOcyte Inhibition at 100 uM (%) ([1]; pH 5.5): B (key: (A)=31-95%; (B)=0-30%)
- V27A OOcyte Inhibition at 100 uM (%) ([2]; pH 5.5): B (key: (A)=31-95%; (B)=0-30%)

SMILES: c1cc2sc(CNC34CC5CC(CC(C5)C3)C4)cc2s1 [Example 81, Adamantan-1-yl-thieno[3,2-b]thiophen-2-ylmethyl-amine]
- S31N OOcyte Inhibition at 100 uM (%) ([1]; pH 5.5): A (key: (A)=31-95%; (B)=0-30%)
- V27A OOcyte Inhibition at 100 uM (%) ([2]; pH 5.5): B (key: (A)=31-95%; (B)=0-30%)

SMILES: COc1ccc2cc(CNC34CC5CC(CC(C5)C3)C4)ccc2c1 [Example 40a, Adamantan-1-yl-(6-methoxy-naphthalen-2-ylmethyl)-amine]
- S31N OOcyte Inhibition at 100 uM (%) [1]: B (key: (A)=31-95%; (B)=0-30%)
- V27A OOcyte Inhibition at 100 uM (%) [2]: A (key: (A)=31-95%; (B)=0-30%)

SMILES: c1cn2cc(CNC34CC5CC(CC(C5)C3)C4)nc2s1 [Example 86, Adamantan-1-yl-imidazo[2,1-b]thiazol-6-ylmethyl-amine]
- S31N OOcyte Inhibition at 100 uM (%) ([1]; pH 5.5): A (key: (A)=31-95%; (B)=0-30%)
- V27A OOcyte Inhibition at 100 uM (%) ([2]; pH 5.5): B (key: (A)=31-95%; (B)=0-30%)

SMILES: Nc1ccc(CNC23CC4CC(CC(C4)C2)C3)cc1 [Example 11, Adamantan-1-yl-(4-amino-benzyl)-amine]
- S31N OOcyte Inhibition at 100 uM (%) ([1]; pH 5.5): B (key: (A)=31-95%; (B)=0-30%)
- V27A OOcyte Inhibition at 100 uM (%) ([2]; pH 5.5): B (key: (A)=31-95%; (B)=0-30%)

SMILES: CSc1ccc(CNC2C3CC4CC(C3)CC2C4)cc1 (stereo not drawn) [Example 103, Adamantan-2-yl-(4-methylsulfanyl-benzyl)-amine]
- S31N OOcyte Inhibition at 100 uM (%) ([1]; pH 5.5): A (key: (A)=31-95%; (B)=0-30%)
- V27A OOcyte Inhibition at 100 uM (%) ([2]; pH 5.5): A (key: (A)=31-95%; (B)=0-30%)
